Values belong to the molecule of their own block, whether it stands above or below them. Residues, ends and D or L forms follow the SMILES beside them. No end group written: not given here.
What was measured:
[1] = target: T1, BB3 (Homo sapiens, UniProt P32247); test: Dynamic mass redistribution (DMR), concentration-response; assay type: cell-based
T1 construct: hIL-2Ra signal peptide (N); expressed in transfected cells
T1 sequence (P32247 2-399 limits assumed): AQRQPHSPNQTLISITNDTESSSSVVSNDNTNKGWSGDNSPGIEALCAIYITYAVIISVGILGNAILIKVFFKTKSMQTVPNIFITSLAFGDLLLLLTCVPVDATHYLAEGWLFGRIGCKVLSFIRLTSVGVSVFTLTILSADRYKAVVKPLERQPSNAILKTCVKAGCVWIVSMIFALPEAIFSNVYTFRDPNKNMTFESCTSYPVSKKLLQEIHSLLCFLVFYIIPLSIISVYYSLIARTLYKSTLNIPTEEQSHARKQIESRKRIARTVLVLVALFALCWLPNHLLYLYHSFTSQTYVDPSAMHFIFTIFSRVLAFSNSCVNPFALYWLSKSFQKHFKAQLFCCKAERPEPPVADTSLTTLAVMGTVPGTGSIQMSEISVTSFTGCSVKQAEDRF

[2] = target: T1, BB3; test: Real-time receptor internalization (TR-FRET), concentration-response; assay type: cell-based
[3] = target: T2, BB3 (Homo sapiens, UniProt P32247); test: β-arrestin recruitment (Tango), validation; assay type: cell-based
T2 construct: host or cells: HTLA cells (HEK293-derived)
T2 sequence (P32247 1-399): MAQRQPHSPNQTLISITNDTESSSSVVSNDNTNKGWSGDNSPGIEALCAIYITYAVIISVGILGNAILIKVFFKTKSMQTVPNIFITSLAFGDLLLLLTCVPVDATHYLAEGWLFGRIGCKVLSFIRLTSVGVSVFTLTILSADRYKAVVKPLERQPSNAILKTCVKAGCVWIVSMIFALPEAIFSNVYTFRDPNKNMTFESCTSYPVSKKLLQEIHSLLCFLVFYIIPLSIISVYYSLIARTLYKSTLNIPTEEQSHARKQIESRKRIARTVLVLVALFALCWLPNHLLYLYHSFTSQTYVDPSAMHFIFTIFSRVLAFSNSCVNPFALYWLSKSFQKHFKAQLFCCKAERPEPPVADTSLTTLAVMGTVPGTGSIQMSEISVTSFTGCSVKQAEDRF
Procedure: The peptide library was additionally screened against 120 GPCR targets in parallel, including all available orphan receptors and 27 known class A peptide receptors using the Tango assay platform ([Kroeze et al., 2015]). Briefly, HTLA cells (a HEK293 cell line stably expressing a tTA-dependent luciferase reporter and a β-arrestin2-TEV fusion gene) were plated 10,000 cells/well in poly-L-lysine–coated clear-bottom white 384-well plates in DMEM supplemented with 10% FBS, 100 U/ml penicillin and 100 μg/ml streptomycin, 2 μg/ml puromycin and 100 μg/ml hygromycin B. 24 hr later, cells were transfected with Tango GPCR constructs using the calcium phosphate method ([Jordan et al., 1996]). The next day, culture medium was changed to DMEM + 1% dFBS and 10 μM peptides were added for overnight stimulation. Bright-Glo solution (Promega) was incubated for 15–20 min at room temperature, and luminescence was counted using a Trilux luminescence counter (Wallac).
For subsequent peptide validation experiments using Tango assays, HTLA cells were transiently transfected in 10 cm dishes with the receptor of interest using polyethylenimine (PEI) ([Longo et al., 2013]). After 24 hr, 25,000 cells/well were plated in clear bottom, white-walled 384-well plates. Assays were performed as described above, with luminescence measured using an EnSpire 2300 Multimode plate reader (PerkinElmer). Luminescence counts were exported into Excel and were analyzed using GraphPad Prism 7.

[4] = target: T1, BB3; test: IP1 accumulation (Gq/11), HTRF; assay type: cell-based; settings: BB3, mean, SEM and n
[5] = tested on: 120 GPCR targets, including all available orphan receptors and 27 known class A peptide receptors; test: Peptide library screen, β-arrestin recruitment (Tango, fold change, 10 μM); assay type: cell-based, human; settings: repeat hitters of the peptide library screen; the value names the known receptor(s) confirmed in the β-arrestin recruitment (Tango) screen
How it was run: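 HTLA cells (HEK293 with tTA-dependent luciferase and β-arrestin2-TEV) transiently transfected with Tango GPCR constructs, then stimulated overnight with 10 μM peptides in 1% dFBS medium. Luciferase luminescence read after 15–20 min Bright-Glo incubation at room temperature.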

[6] = target: T3, OPRK1 (Homo sapiens, UniProt P41145); test: β-arrestin recruitment (Tango), known peptide receptors; assay type: cell-based; settings: mean
T3 construct: host or cells: HTLA cells (HEK293-derived)

[7] = target: T4, GPR15 (Homo sapiens, UniProt P49685); test: cAMP inhibition (Gi/o), HTRF with forskolin; assay type: cell-based; settings: GPR15L cleavage variants versus peptide 64; Figure 5, Table S7
T4 construct: hIL-2Ra signal peptide (N); expressed in transfected cells
T4 sequence (P49685 2-360 limits assumed): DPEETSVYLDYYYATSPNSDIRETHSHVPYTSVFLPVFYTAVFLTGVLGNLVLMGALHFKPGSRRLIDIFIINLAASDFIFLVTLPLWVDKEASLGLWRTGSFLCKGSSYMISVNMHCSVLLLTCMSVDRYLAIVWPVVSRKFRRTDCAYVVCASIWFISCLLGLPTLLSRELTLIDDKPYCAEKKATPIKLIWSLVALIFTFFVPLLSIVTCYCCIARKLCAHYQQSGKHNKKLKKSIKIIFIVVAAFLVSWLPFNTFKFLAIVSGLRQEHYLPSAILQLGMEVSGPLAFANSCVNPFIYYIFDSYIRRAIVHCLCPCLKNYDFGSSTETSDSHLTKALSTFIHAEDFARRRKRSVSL
Procedure: Peptide-dependent second messenger responses were measured using commercially available HTRF-based IP1 and cAMP kits (Cisbio) as described previously ([Nørskov-Lauritsen et al., 2014]). Receptor expression was induced for 48 hr with 0.1 μg/ml doxycycline in 10 cm dishes. For IP1 measurements (to measure Gq/11), 2,500 cells/well were mixed with ligands in triplicate wells in low volume white 384-well plates at 37°C for 30 min. For cAMP assays, 2,500 cells/well were added in triplicate wells in white 384-well plates in the absence or presence of 3 μM forskolin (to measure Gs and Gi/o activation respectively). 100 μM IBMX was included to prevent cAMP degradation during 30 min stimulation on a plate shaker at room temperature. For both assays, HTRF was measured using an EnVision 2104 Multimode plate reader (PerkinElmer).

[8] = tested on: GPR15; test: Repeat of proposed literature pairing; assay type: cell-based, human
Description: Supplement mmc7.xlsx, sheet "Hit summary and classification" | column: Priority orphans

[9] = tested on: GPR15; test: Repeat of proposed literature pairing (mass redistribution and/or internalization); assay type: cell-based, human; settings: target GPR15; reported ligand tested on receptor-expressing cell line
[10] = target: T5, NPY5 (Homo sapiens, UniProt Q15761); test: β-arrestin recruitment (Tango), known peptide receptors; assay type: cell-based; settings: NPY5R; Emax and pEC50 n.d.; n = 3
T5 construct: host or cells: HTLA cells (HEK293-derived)
T5 sequence (Q15761 1-445): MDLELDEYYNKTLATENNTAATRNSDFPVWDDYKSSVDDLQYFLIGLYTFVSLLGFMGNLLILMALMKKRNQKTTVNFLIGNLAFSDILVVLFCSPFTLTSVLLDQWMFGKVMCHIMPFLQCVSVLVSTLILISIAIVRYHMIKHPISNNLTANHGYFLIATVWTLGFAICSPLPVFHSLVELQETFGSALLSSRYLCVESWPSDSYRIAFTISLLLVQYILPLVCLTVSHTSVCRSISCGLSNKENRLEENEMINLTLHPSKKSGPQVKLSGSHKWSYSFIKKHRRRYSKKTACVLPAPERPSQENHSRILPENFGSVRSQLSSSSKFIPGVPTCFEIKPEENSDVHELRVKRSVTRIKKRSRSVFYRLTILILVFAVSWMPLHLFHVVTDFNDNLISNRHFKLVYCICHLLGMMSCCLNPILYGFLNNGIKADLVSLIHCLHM

[11] = target: T6, GPR183 (Homo sapiens, UniProt P32249); test: β-arrestin recruitment (Tango), indicative pairing; assay type: cell-based; settings: mean, n = 3
T6 construct: host or cells: HTLA cells (HEK293-derived)

[12] = target: T7, MLNR (Homo sapiens, UniProt O43193); test: β-arrestin recruitment (Tango), known peptide receptors; assay type: cell-based; settings: endogenous ligand(s) included in peptide library
T7 construct: host or cells: HTLA cells (HEK293-derived)
Description: (§1) Supplement mmc6.xlsx, sheet "Peptide GPCR controls" | column: Confirmed?

[13] = target: T8, GPR161 (Homo sapiens, UniProt Q8N6U8); test: β-arrestin recruitment (Tango), indicative pairing; assay type: cell-based; settings: mean, n = 3
T8 construct: host or cells: HTLA cells (HEK293-derived)

[14] = tested on: NPS; test: β-arrestin recruitment (Tango), known peptide receptors; assay type: cell-based, human; settings: NPS receptor, endogenous ligand(s) included in peptide library
Description: as §1

[15] = tested on: NTSR2; test: as above; assay type: cell-based, human; settings: Neurotensin not cyclized
Description: as §1

[16] = tested on: NTSR1; test: as above; assay type: cell-based, human; settings: Neurotensin not cyclized
Description: Supplement mmc6.xlsx, sheet "Peptide GPCR controls" | column: Confirmed?; Notes

[17] = tested on: OPRL1; test: as above; assay type: cell-based, human; settings: endogenous ligand(s) included in peptide library
Description: as §1

[18] = tested on: HCTR2; test: as above; assay type: cell-based, human; settings: endogenous ligand(s) included in peptide library
Description: as §1

[19] = target: GPR55 (Homo sapiens, UniProt Q9Y2T6)
[20] = target: GPR1 (PathHunter cells) (UniProt P46091)
[21] = target: GPR1 (Tango construct) (human) (UniProt P46091)
[22] = target: T9, GPR17 (Homo sapiens, UniProt Q13304); test: β-arrestin recruitment (Tango), indicative pairing; assay type: cell-based; settings: mean, n = 3
T9 construct: host or cells: HTLA cells (HEK293-derived)

[23] = target: T10, NOP (OPRL1) (Homo sapiens, UniProt P41146); test: β-arrestin recruitment (Tango), known peptide receptors; assay type: cell-based; settings: mean, n = 3
T10 construct: host or cells: HTLA cells (HEK293-derived)
Description: Supplement mmc7.xlsx, sheet "Peptide validation data" | column: Emax; pEC50

T9 sequence (Q13304 whole entry): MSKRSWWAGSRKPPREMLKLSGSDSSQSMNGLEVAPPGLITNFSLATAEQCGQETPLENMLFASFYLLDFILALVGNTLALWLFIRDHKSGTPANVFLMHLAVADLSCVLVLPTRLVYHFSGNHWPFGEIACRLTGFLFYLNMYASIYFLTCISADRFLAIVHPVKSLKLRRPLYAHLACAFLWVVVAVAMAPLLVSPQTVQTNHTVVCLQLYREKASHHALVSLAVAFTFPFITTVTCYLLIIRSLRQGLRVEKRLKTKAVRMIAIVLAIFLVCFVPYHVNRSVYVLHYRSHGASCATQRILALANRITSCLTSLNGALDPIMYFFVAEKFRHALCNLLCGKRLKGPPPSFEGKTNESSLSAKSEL
T3 sequence (P41145 whole entry): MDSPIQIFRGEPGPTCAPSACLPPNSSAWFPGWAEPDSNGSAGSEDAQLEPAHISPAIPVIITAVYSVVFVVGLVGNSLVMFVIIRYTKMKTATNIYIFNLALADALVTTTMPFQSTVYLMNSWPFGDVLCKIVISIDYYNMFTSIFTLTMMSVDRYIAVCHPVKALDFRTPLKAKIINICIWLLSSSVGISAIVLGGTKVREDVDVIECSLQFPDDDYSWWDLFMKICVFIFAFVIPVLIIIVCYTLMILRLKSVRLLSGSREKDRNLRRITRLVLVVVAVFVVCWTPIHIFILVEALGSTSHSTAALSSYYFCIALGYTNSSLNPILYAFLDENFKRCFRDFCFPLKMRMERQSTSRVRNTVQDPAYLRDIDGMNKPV
T10 sequence (P41146 whole entry): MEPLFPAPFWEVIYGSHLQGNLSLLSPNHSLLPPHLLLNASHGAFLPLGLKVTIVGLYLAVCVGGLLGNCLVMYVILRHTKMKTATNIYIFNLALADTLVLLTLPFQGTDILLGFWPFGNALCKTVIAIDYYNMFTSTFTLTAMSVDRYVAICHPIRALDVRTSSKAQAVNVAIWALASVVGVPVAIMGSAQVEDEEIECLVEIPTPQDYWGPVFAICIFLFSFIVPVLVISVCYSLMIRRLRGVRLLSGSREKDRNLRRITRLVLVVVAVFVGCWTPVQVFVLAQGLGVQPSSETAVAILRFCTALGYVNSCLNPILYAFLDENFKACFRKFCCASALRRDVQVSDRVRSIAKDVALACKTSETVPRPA
T8 sequence (Q8N6U8 whole entry): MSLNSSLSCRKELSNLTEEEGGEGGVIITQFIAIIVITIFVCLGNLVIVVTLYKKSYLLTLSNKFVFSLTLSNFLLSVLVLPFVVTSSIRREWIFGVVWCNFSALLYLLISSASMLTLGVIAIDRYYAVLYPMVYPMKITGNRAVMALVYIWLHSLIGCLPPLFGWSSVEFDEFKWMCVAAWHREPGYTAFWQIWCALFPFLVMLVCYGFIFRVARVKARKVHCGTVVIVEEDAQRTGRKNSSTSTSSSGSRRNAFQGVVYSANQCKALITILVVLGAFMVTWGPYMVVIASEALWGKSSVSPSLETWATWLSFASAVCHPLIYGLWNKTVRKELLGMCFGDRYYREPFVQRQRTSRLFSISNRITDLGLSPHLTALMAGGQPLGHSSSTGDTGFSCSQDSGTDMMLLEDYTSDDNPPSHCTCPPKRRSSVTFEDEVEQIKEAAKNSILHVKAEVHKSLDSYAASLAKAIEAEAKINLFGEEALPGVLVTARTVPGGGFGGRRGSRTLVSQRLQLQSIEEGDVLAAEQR
T6 sequence (P32249 whole entry): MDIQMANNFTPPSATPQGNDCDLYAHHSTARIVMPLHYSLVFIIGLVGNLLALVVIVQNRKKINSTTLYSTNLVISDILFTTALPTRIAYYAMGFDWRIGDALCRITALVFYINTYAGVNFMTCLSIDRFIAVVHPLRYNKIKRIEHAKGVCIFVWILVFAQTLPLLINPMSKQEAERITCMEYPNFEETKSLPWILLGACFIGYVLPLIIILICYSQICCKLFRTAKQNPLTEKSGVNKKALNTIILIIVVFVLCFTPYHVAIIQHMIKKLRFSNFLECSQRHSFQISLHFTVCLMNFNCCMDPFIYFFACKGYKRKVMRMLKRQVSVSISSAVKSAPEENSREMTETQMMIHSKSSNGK
GPR55, sequence (Q9Y2T6 whole entry): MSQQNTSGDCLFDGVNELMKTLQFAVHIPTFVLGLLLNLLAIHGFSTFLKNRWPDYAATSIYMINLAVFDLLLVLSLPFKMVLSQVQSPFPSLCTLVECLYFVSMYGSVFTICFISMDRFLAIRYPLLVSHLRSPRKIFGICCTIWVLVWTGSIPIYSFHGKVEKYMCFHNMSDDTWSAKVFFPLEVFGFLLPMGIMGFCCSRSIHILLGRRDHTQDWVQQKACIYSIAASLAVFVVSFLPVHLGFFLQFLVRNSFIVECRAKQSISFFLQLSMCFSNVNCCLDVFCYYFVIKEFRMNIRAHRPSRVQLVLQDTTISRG
GPR1 (PathHunter cells), sequence (P46091 whole entry): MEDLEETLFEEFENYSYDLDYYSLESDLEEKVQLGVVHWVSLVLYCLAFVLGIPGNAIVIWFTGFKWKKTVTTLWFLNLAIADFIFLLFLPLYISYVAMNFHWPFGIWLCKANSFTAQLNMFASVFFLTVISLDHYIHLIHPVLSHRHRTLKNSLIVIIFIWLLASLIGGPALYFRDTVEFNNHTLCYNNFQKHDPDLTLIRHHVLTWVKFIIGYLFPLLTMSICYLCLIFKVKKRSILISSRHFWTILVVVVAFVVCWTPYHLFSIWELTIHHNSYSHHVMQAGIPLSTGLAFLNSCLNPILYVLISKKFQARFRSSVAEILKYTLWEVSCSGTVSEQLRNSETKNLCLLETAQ
GPR1 (Tango construct) (human), sequence (P46091 whole entry): as above
T7 sequence (O43193 whole entry): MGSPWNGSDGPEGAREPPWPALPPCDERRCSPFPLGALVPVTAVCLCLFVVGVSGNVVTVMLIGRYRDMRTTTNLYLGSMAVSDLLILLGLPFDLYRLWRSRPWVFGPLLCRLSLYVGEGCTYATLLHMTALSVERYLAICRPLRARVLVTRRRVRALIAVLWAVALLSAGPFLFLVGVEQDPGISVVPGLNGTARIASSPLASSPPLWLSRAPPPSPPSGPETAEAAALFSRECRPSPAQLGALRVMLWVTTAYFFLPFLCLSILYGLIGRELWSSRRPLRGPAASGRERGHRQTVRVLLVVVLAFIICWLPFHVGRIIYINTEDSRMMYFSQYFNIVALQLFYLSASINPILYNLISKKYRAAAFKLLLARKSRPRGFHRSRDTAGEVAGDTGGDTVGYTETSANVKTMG

Molecule: CSCC[C@H](NC(=O)[C@H](Cc1ccccc1)NC(=O)CNC(=O)CNC(=O)[C@@H](N)Cc1ccc(O)cc1)C(=O)N[C@@H](CCCNC(=N)N)C(=O)N[C@@H](CCCNC(=N)N)C(=O)N[C@H](C(=O)NCC(=O)N[C@@H](CCCNC(=N)N)C(=O)N1CCC[C@H]1C(=O)N[C@@H](CCC(=O)O)C(=O)N[C@@H](Cc1c[nH]c2ccccc12)C(=O)N[C@@H](Cc1c[nH]c2ccccc12)C(=O)N[C@@H](CCSC)C(=O)N[C@@H](CC(=O)O)C(=O)N[C@@H](Cc1ccc(O)cc1)C(=O)N[C@@H](CCC(N)=O)C(=O)N[C@@H](CCCCN)C(=O)N[C@@H](CCCNC(=N)N)C(=O)N[C@@H](Cc1ccc(O)cc1)C(=O)NCC(=O)NCC(=O)N[C@@H](Cc1ccccc1)C(=O)N[C@@H](CC(C)C)C(=O)O)C(C)C [Peptide 158, Peptide E] (H-YGGFMRRVGRPEWWMDYQKRYGGFL-OH)
EC50 [1]: > 10 µM | EC50 ([1]; pEC50, DMR (peak), BB3, mean, SEM and n): 72.4 µM | Emax, Internalization (AUC) [2]: 16.0 | EC50 ([3]; BB3, mean, SEM and n, read-out: pEC50, Tango (fold over basal) (converted)): 93.3 µM | EC50 ([3]; HTLA cells transiently transfected, overnight stimulation, luciferase, mean ± SEM of 3-4 independent experiments in triplicate, read-out: pEC50, β-arrestin recruitment (Tango), BB3 (converted)): > 10 µM | Emax, IP1 [4]: 164.0 nM | EC50 ([4]; pEC50, IP1 (nM)): 6760 nM | Confirmation of known target in Tango [5]: kappa, mu | Emax, Tango (fold over basal) ([6]; n = 3): 5.0 fold over basal | EC50 ([6]; n = 3, read-out: pEC50, Tango (fold over basal) (converted)): 1.35 µM

Molecule: KGGFSFRF [Peptide 31]
Comment, Tango (fold over basal) [10]: Response >1uM; part of QRFP43 | Emax, Tango (fold over basal) [11]: 1.7 fold over basal | pEC50, Tango (fold over basal) [11]: 8.61

Molecule: Motilin
Confirmed? (confirmation of b-arrestin recruitment) [12]: Yes

Molecule: Nociceptin/orphanin FQ
Confirmed? (confirmation of b-arrestin recruitment) [17]: Yes

Molecule: PACAP27 (peptide)
pEC50 at GPR55 (internalization or mass redistribution; assay not given) [19]: 9.51 pEC50

Molecule: TLGPQAHSLALQSVDLLFRP [Peptide 132]
Emax, Tango (fold over basal) [23]: 8.8 fold over basal | pEC50, Tango (fold over basal) [23]: 4.82

Continued, in another order:

fold improved potency over the 11-amino acid peptide at GPR15 [7]: 100 fold | Peptide pairing for orphan receptor GPR15 (confirmed/unconfirmed) [8]: Confirmed peptide pairings for orphans
Molecule: GPR15L: longest 57-residue cleavage variant of C10orf99 with two intramolecular disulfide bridges (KRRPAKAWSGRRTRLCCHRVPSPNSTNLKGHHVRLCKPCKLEPEPRLWVVPGALPQV; disulfide (positions not given here))
Active in DMR/internalization [9]: Yes

Emax, Tango (fold over basal) [13]: 1.4 fold over basal | pEC50, Tango (fold over basal) [13]: 6.57
Molecule: NWTPQAMLYLKGAQ [Peptide 95]

Confirmed? (confirmation of b-arrestin recruitment) [14]: No
Molecule: Neuropeptide S (SFRNGVGTGMKKTSFQRAKS)

Confirmed? (confirmation of b-arrestin recruitment) [15]: No | Confirmed? (confirmation of b-arrestin recruitment) ([16]; Tango): Yes
Molecule: Neurotensin
Notes (b-arrestin recruitment response) ([16]; validation): Neurotensin not cyclized; weak activation in validation

Confirmed? (confirmation of b-arrestin recruitment) [18]: Yes
Molecule: Orexin-B

pEC50 in PathHunter β-arrestin recruitment assay [20]: 6.18 pEC50 | pEC50 in Tango β-arrestin recruitment assay [21]: 5.6 pEC50
Molecule: Peptide 141 (Osteocrin_(-2-19))

Emax, Tango (fold over basal) [22]: 1.3 fold over basal | pEC50, Tango (fold over basal) [22]: 9.08
Molecule: RHVNHSATEALGELRERAPGQGTNGFQLLRHAV [Peptide 192]

From article PMC6838683, “Discovery of Human Signaling Systems: Pairing Peptides to G Protein-Coupled Receptors” (Cell, 2019)
